The source of these data is patent US6545170B2, “2-amino-5, 6 heptenoic acid derivatives useful as nitric oxide synthase inhibitors” (Pharmacia Corporation, priority 2000, dated 2003).

Structures can show the parent of a compound that is named as a salt.

For assay [1], the target named is T1, human endothelial constitutive NOS (hecNOS) (Homo sapiens, UniProt P29474).
T1 construct: made in house; host or cells: Sf9 insect cells (baculovirus vector)
Briefly: Citrulline assay for nitric oxide synthase, hecNOS. The conditions noted are these: recombinant enzyme, 30 μM L-arginine, calmodulin 40-100 nM. Type of assay: biochemical. From the text: (§1) Nitric oxide synthase (NOS) activity can be measured by monitoring the conversion of L-[2,3-^3H]-arginine to L-[2,3-^3H]-citrulline (Bredt and Snyder, Proc. Natl. Acad. Sci. U.S.A., 87, 682-685, 1990 and Moore et al, J. Med. Chem., 39, 669-672, 1996). Human inducible NOS (hiNOS), human endothelial constitutive NOS (hecNOS) and human neuronal constitutive NOS (hncNOS) are each cloned from RNA extracted from human tissue. The cDNA for human inducible NOS (hiNOS) is isolated from a λcDNA library made from RNA extracted from a colon sample from a patient with ulcerative colitis. The cDNA for human endothelial constitutive NOS (hecNOS) is isolated from a λcDNA library made from RNA extracted from human umbilical vein endothelial cells (HUVEC) and the cDNA for human neuronal constitutive NOS (hncNOS) is isolated from a λcDNA library made from RNA extracted from human cerebellum obtained from a cadaver. The recombinant enzymes are expressed in Sf9 insect cells using a baculovirus vector (Rodi et al, in The Biology of Nitric Oxide, Pt. 4: Enzymology. Biochemistry and Immunology; Moncada, S., Feelisch, M., Busse, R., Higgs, E., Eds.; Portland Press Ltd.: London, 1995; pp 447-450). Enzyme activity is isolated from soluble cell extracts and partially purified by DEAE-Sepharose chromatography. To measure NOS activity, 10 μL of enzyme is added to 40 μL of 50 mM Tris (pH 7.6) in the presence or absence of test compounds and the reaction initiated by the addition of 50 μL of a reaction mixture containing 50 mM Tris (pH 7.6), 2.0 mg/mL bovine serum albumin, 2.0 mM DTT, 4.0 mM CaCl2, 20 μM FAD, 100 μM tetrahydrobiopterin, 0.4 mM NADPH and 60 μM L-arginine containing 0.9 μCi of L-[2,3-^3H]-arginine. The final concentration of L-arginine in the assay is 30 μM. For hecNOS or hncNOS, calmodulin is included at a final concentration of 40-100 nM. […] After mixing the resin is allowed to settle and L-[2,3-^3H]-Citrulline formation is determined by counting aliquots of the supernatant with a liquid scintillation counter. […]

Assay [2] concerns the target T2, human neuronal constitutive NOS (hncNOS) (Homo sapiens, UniProt P29475).
T2 construct: made in house; host or cells: Sf9 insect cells (baculovirus vector)
Put plainly: Citrulline assay for nitric oxide synthase, hncNOS. Format: biochemical. The conditions noted are these: recombinant enzyme, 30 μM L-arginine, calmodulin 40-100 nM.
Source text: as §1

Assay [3] has as its target T3, Human inducible NOS (hiNOS) (Homo sapiens, UniProt P35228).
T3 construct: made in house; host or cells: Sf9 insect cells (baculovirus vector)
Briefly: Citrulline assay for nitric oxide synthase, hiNOS. Format: biochemical. The conditions noted are these: recombinant enzyme, 30 μM L-arginine, 37° C. 15 minutes.
Source text: as §1

Assay [4] relates to inducible nitric oxide synthase activity (plasma nitrite/nitrate levels). Put plainly: In vivo assay: LPS-induced increase in plasma nitrite/nitrate. Conditions: Rattus norvegicus; rats, endotoxin (LPS) i.p., oral administration, 5 hours post-treatment; read-out: ED50, inhibition of LPS-induced increase in plasma nitrite/nitrate levels. As to the method: Plasma nitrite/nitrate levels can be determined 5 hours post-treatment.

A word on the IC50: it is the point on the concentration scale where inhibition reaches its midpoint. Turning to `CC(=N)NC/C=C/CC[C@H](N)C(=O)O` [Example 8, (2S,5E)-2-amino-7-[(1-iminoethyl)amino]-5-heptenoic acid, dihydrochloride], the IC50 amounted to 418 µM in assay [1], 150 µM in assay [2] and 20 µM in assay [3].
Regarding `CC(=N)NC/C=C\CC[C@H](N)C(=O)O` [Example 6, (2S,5Z)-2-amino-7-[(1-iminoethyl)amino]-5-heptenoic acid, dihydrochloride], the IC50 in assay [1] was 89 µM; in assay [2] it was 8 µM; in assay [3], 0.9 µM.
Taken in the same sequence, the figures for `CC(=N)NC/C(C)=C/CC[C@H](N)C(=O)O` [Example 2, (2S,5E)-2-amino-6-methyl-7-[(1-iminoethyl)amino]-5-heptenoic acid, dihydrochloride] were 1490 µM, 523 µM and 172 µM.
For `CC(=N)NC/C(C)=C\CC[C@H](N)C(=O)O` [Example 1, (2S,5Z)-2-amino-6-methyl-7-[(1-iminoethyl)amino]-5-heptenoic acid, dihydrochloride], in assay [4], the ED50 is below 0.1 mg/kg.
